Legend:
tonic convulsion = assay: antipentylenetetrazole test indicating anticonvulsive activities; assay type: in vivo; conditions: Mus musculus; oral, 60 min before s.c. pentylenetetrazole 125 mg/kg; mortality observed for 2 h; DS male mice
Procedure: In determination of the antipentylenetetrazole activity, four test lots consisting of 4×10 DS male mice were employed. Within 15 minutes after single subcutaneous injection of 125 mg/kg (body weight of mouse) of pentylenetetrazole (a kind of convulsion reagent given as an aqueous solution), the mice were attacked by tonic convulsion which killed them. Test compound was orally administered 60 minutes before said s.c. injection. Observation was made for two hours postinjection of pentylenetetrazole. Anticonvulsant activity was determined in mortality percentage between 100% (all the mice dead) and 0% (all the mice alive). Test results are shown by preventive ED50 value (Effective Doses in mg/kg, a theoretical level of 50% alive and 50% dead)[Goodman, et al.: J. Pharmacol., 108, 168 (1953)].

acute toxicity = conditions: mouse, in vivo; oral; DS infant male mice, 20 to 23 g; observed 72 hours; Bliss method
Procedure: Test compounds were orally administered to DS infant male mice with four toxic doses. For each dose 10 mice were used, their body weights ranging from 20 to 23 grams. […] Mortality was calculated by the Bliss method [Bliss: Ann. Appln. Biol., 23, 134-307 (1935); Quant. J. Pharmacol., 11, 192 (1938)].

benzodiazepine receptors = assay: radio receptor assay using receptors extracted from brains of rats and 3H-diazepam; assay type: binding; conditions: receptors extracted from rat brains

| Structure (SMILES) | ED50 (tonic convulsion) [mg/kg] | LD50 at 72 h (acute toxicity) [mg/kg] | Ki (benzodiazepine receptors) [nM] |
| --- | --- | --- | --- |
| OCc1nnc2n1-c1ccc(Cl)cc1C(c1ccccc1Cl)OC2 (stereo not drawn) [Compound 6] | 3.25 | > 1000 | – |
| CN(C)Cc1nnc2n1-c1ccc(Cl)cc1C(c1ccccc1Cl)OC2 (stereo not drawn) [Compound 8] | 1.02 | > 1000 | – |
| Clc1ccc2c(c1)C(c1ccccc1Cl)OCc1nnc(CN3CCCC3)n1-2 (stereo not drawn) [Compound 9] | 4.63 | > 1000 | – |
| Cn1nc2n(c1=O)-c1ccc(Cl)cc1C(c1ccccc1Cl)OC2 (stereo not drawn) [Compound 12] | 3.46 | > 1000 | – |
| Cc1nnc2n1-c1ccc(Cl)cc1C(c1ccccc1Cl)OC2C (stereo not drawn) [Compound 13] | 1.19 | > 1000 | – |
| OCc1nnc2n1-c1ccc(Cl)cc1C(c1ccccc1Cl)OC2 (stereo not drawn) [1-Hydroxymethyl-6-(2-chlorophenyl)-8-chloro-4H,6H-(1,2,4)triazolo[4,3-a][4,1]benzoxazepine] | – | – | 3.45 |
| CC(C)OCc1nnc2n1-c1ccc(Cl)cc1C(c1ccccc1Cl)OC2 (stereo not drawn) [Compound 10] | 2.42 | > 1000 | – |
| Clc1ccc2c(c1)C(c1ccccc1Cl)OCc1nnc(CN3CCOCC3)n1-2 (stereo not drawn) [Compound 5] | 3.81 | > 1000 | – |
| CCCOCc1nnc2n1-c1ccc(Cl)cc1C(c1ccccc1Cl)OC2 (stereo not drawn) [Compound 11] | 3.09 | > 1000 | – |
| Clc1ccc2c(c1)C(c1ccccc1Cl)OCc1nnc(N3CCOCC3)n1-2 (stereo not drawn) [Compound 2] | 4.26 | > 1000 | – |
| CN1C(=O)CN=C(c2ccccc2)c2cc(Cl)ccc21 [Diazepam, reference compound] | 1.2 | – | – |
| CN1CCN=C(c2ccccc2)c2cc(Cl)ccc21 [Medazepam, reference compound] | – | > 1000 | – |
| COCc1nnc2n1-c1ccc(Cl)cc1C(c1ccccc1Cl)OC2 (stereo not drawn) [Compound 3] | 2.38 | > 1000 | – |
| Cc1nnc2n1-c1ccc(Cl)cc1C(c1ccccc1C(F)(F)F)OC2 (stereo not drawn) [Compound 15] | 1.41 | > 1000 | – |
| CC(=O)OCc1nnc2n1-c1ccc(Cl)cc1C(c1ccccc1Cl)OC2 (stereo not drawn) [Compound 4] | 1.2 | > 1000 | – |
| CC(=O)OCCc1nnc2n1-c1ccc(Cl)cc1C(c1ccccc1Cl)OC2C (stereo not drawn) [Compound 14] | 1.67 | > 1000 | – |
| CCOCc1nnc2n1-c1ccc(Cl)cc1C(c1ccccc1Cl)OC2 (stereo not drawn) [Compound 7] | 2.13 | > 1000 | – |
| Clc1ccc2c(c1)C(c1ccccc1Cl)OCc1nncn1-2 (stereo not drawn) [Compound 1] | 1.25 | > 1000 | – |
